Values quoted from earlier work in patent publication US8114422B2, “Methods and compositions for reducing skin damage” (The General Hospital Corporation, priority 2005, dated 2012).
Read-outs that look alike come from different tables or passages of the source.

Columns and labels:
[1] = system: mitochondrial membrane potential
PDGF receptor kinase = settings: read-out: IC50 PDGF receptor (tyrosine) kinase

Row | SMILES | depolarization of mitochondrial membrane potential ([1]; treatment of cells at 10 μM) | depolarization of mitochondrial membrane potential ([1]; treatment of cells at 100 nm) | IC50 (PDGF receptor kinase)
1 | N#CC(C#N)=NNc1ccc(OC(F)(F)F)cc1 [FCCP, Carbonylcyanide-4-(trifluoromethoxy)-phenylhydrazone] | complete (10 μM) | partial (100 nm) or | –
2 | COc1cc2ncc(-c3ccccc3)nc2cc1OC [AG-1296, 6,7-Dimethoxy-3-phenylquinoxaline] | – | – | 1 µM
3 | N#CC(=Cc1ccc2[nH]ccc2c1)C(N)=C(C#N)C#N [AG-370] | – | – | 20 µM
